From patent US5849900A, “Inhibition of viruses by antisense oligomers capable of binding to polypurine rich tract of single-stranded RNA or RNA-DNA hybrids” (Max-Planck-Gesellschaft zur Forderung der Wissenschafter …, priority 1995, dated 1998)

Assays:
RT = experiment: Inhibition of the RT by TFO-A variants; assay type: biochemical, HIV-1
Excerpt: Through these studies, it was learned that the two bulges are essential for protection of RNA and that the overhanging 5'- and 3'-ends can be shortened. Variances numbered 5037 (SEQ ID NO:26) and 5074 (SEQ ID NO:21) inhibited cleavage to 50% at 50-fold molar excess of the oligonucleotide over the template, i.e., about one μM oligonucleotide.

[1] = system: PPT region of single-stranded RNA; RNase H; experiment: Protection of single-stranded RNA from RNase H cleavage by chimeric oligonucleotides 5'-A-B-C-3' (Example 4); assay type: biochemical, HIV-1; details: for oligonucleotide concentration that inhibited cleavage to 50%: 50-fold molar excess of the oligonucleotide over the template
Method: Chimeric oligonucleotides of the basic formula 5'-A-B-C-3' were tested with single-stranded RNA in a two-strand system. […] (Personal communication.) Average protection from cleavage was about 50%.
Protection from RNase H was monitored as above. Specifically, protection was monitored in vitro using RNA which was radioactively labeled at its 5'-end. Cleavage was analyzed on a sequencing gel. Cleavage within the PPT region of the RNA leads to a band of about 80 nucleotides. Protection from cleavage results in an uncleavaged full-length RNA. The amount of cleaved versus uncleaved RNA was monitored by phosphoimager.

[2] = system: PPT of HIV-1 viral RNA (pKJ2 RNA); experiment: cDNA elongation / premature termination of cDNA synthesis on single-stranded viral RNA (Example 1); assay type: biochemical; details: antisense oligonucleotide hybridized with single-stranded HIV-1 RNA; HIV-1 RT
Method: HIV-1 viral RNA was transcribed in vitro from a construct containing a T7 promoter along with the PPT, which consists of the sequence: AAAAGAAAAGGGGGGA (SEQ ID NO: 1) or […] (SEQ ID NO: 2) when extended within the 3' LTR and 2 non-purines are included. The viral RNA, corresponding to pKJ2, consisted of 134 nucleotides. A ^32 P end-labeled antisense oligonucleotide was hybridized with the RNA. The cDNA reaction products were analyzed on 10% polyacrylamide TEE-urea gels. Details of the procedure are as follows:
To the standard reaction mixture described in Example 2 below were added a 125 μM quantity of one of the ddNTPs and each of the other three dNTPS and 4 units of HIV-1RT. The reactions were started by the addition of approximately 3 pmol of hybrid RNA (low specific activity) and treated as described above. To check for cDNA elongation, the same test was carried out, except with unlabeled in vitro transcribed RNA hybridized to a 10:1 mixture of unlabeled to labeled oligonucleotide. Aliquots were analyzed by electrophoresis on 10% TEE-urea-polyacrylamide gels.
The RNase H reaction was carried out in a total volume of 500 μL in RNase H buffer containing 1000 units of RNasin and 25 units of HIV-1RT/RNase H. After the reaction was started by the addition of 8 pmol of an unlabeled RNA-DNA oligonucleotide hybrid, the sample was divided into five aliquots of 100 μL and incubated for 30 minutes at 37° C., and the reaction was stopped at 95° C. for 5 minutes. The samples were placed on ice and to each was added 10 units of DNase I to remove the DNA oligonucleotide. After 10 minutes, the samples were incubated further at 37° C. for 10 minutes. The reactions were stopped at 95° C. for 10 minutes. […] Aliquots were analyzed by electrophoresis on an 8% TBE-urea-polyacrylamide gel together with dideoxy sequencing ladders generated with the same ^32 P-end-labeled DNA oligonucleotide primer on a single-stranded M13 DNA template harboring the corresponding DNA fragment. […]

[3] = system: pKJ2 RNA hybridized with 40-mer deoxyribonucleotide complementary to the PPT region; RNase H; experiment: RNase H cleavage inhibition on pKJ2 RNA-DNA hybrid, phosphoimager quantitation (Example 3); assay type: biochemical, HIV-1; details: for IC50: range of concentrations, FIG. 4, phosphoimager, read-out: concentration that inhibited the RNase H by 50%
Method: In vitro transcribed, 5'end-labeled pKJ2 RNA of 134 nucleotides in length was hybridized with a 10-fold excess of a 40-mer deoxyribonucleotide complementary to the PPT region. Volkmann, et al., Biochimie, 1993, 75, 71-78. Hybridizations were carried out in 25 mM Tris-acetate buffer (pH 6.8) containing 50 mM NaCl, 10 mM β-mercapotoethanol and 0.4 mM spermine hydrochloride. The mixture was incubated for 3 minutes at 90° C., then cooled slowly to room temperature. For triplex-formation, 1 pmol hybrid substrate was incubated with either 10 or 100 pmol oligodeoxynucleotide overnight at 37° C. Finally, each sample was treated with 12 ng enzyme in 10 microliters RNase H-standard buffer (see Example 2) for 30 minutes at 37° C. RNase H cleavage reaction was stopped by incubation at 96° C. for 2 minutes. Samples were ethanol-precipitated and analyzed on 10% polyacrylamide-TEE-urea gel. The gel was visualized by autoradiography and analyzed with a phosphoimager (Molecular Dynamics). GT purine-pyrimidine mixed DNA oligonucleotides and RNA oligonucleotides were analyzed and compared with a 25-mer pyrimidine sequence in parallel (Seq ID No: 3) and antiparallel (Seq ID No: 42) orientation. To quantitate the effects of the oligonucleotides, the amounts of uncut RNA were determined. The oligonucleotides tested are listed below:
Oligonucleotides GT1, GT2, and GU1 were tested further at a range of concentrations. The concentrations of the remaining materials were as previously. The quantitative plots of phosphoimager results for GT1, GT2, and GU1 are depicted in FIG. 4. GT1 inhibited the RNase H by 50% at 5.0 μM, and GU1 inhibited 50% at 0.5 μM.

[4] = 1 pmol hybrid with 10 or 100 pmol oligonucleotide

For “5037: TFO-A variant, sequence shown only as drawing in Table 6 (TTTTCTTTTGGGGGGTTTGGTTGGGTTTTCCCTTCCAGTCCCCCCTTTTCTTTT; chemistry not given here) [compound 5037]”, the “concentration at which ninety-five percent inhibition of the RT occurred” value (RT) was “about 25 μM” and the “oligonucleotide concentration that inhibited cleavage to 50%” value [1] was “about one”.
In the case of “AGGGGATTTGGTTGGGTTTTCCCTTCCAGTCCCCC (chemistry not given here) [compound 5074, TFO-A variant]”, the “concentration at which ninety-five percent inhibition of the RT occurred” value (RT) is reported as “about 25 μM” and the “oligonucleotide concentration that inhibited cleavage to 50%” value [1] is reported as “about one”.
In the case of “AGTCCCCCCTTTTCTTTTAA (chemistry not given here) [SEQ ID NO: 10, antisense 20-mer covering the PPT]”, the “blocking of cDNA synthesis (inhibition of cDNA elongation)” value [2] is reported as 100%.
With “CCCTTCCAGTCCCCCCTTTTCTTTT (chemistry not given here) [PY2]” the “inhibition of RNase H (degree, in words)” value [3, 4] was “lowest degree of inhibition”.
For “CCGCCCAGGCCACGCCTCCC (chemistry not given here) [SEQ ID NO: 11, control antisense 20-mer outside the PPT region, reference compound]”, the “blocking of cDNA synthesis (inhibition of cDNA elongation)” value [2] was 20-50%.
For “TFO F1: TFO F derivative that formed a pseudocircle due to a complementary tail (GCATGCCCTTTTCTTTTCCCCCCTTTTTTCCCCCCTTTTCTTTTCCGCATGC; forms pseudocircle through self-complementary tail, further chemistry not given here)”, the “inhibition of RNase H” value [1] was “about 80%”.
For “TGAATTAGCCCTTCCAGTCCCCCCTTTTCTTTTAAAAAGT (chemistry not given here) [SEQ ID NO: 9, antisense 40-mer covering the PPT]”, the “blocking of cDNA synthesis (inhibition of cDNA elongation)” value [2] was 100%.
In the case of “TTTTCTTTTGGGGGGTTTGGTTGGGTTTTCCCTTCCAGTCCCCCCTTTTCTTTT (chemistry not given here) [TFO A, 54-mer, partially self-complementary, hairpin-type stem-looped structure]”, the “inhibition of cleavage (in words)” value ([1]; at concentrations less than one nanomolar, in vitro) is reported as “completely inhibited cleavage”.
Substance “TTTTGTTTTGGGGGGTGTGGTTGGG (chemistry not given here) [TFO 1', 25-mer GT triplex-forming oligonucleotide]” has an IC50 [3] of 5 µM.
With “UUUUGUUUUGGGGGGUGUGGUUGGG (chemistry not given here) [GU1, the RNA oligonucleotide tested]” the “inhibition of RNase H” value [3, 4] was ~100% and the IC50 [3] was 0.5 µM.
“Us Us Us Us Cs Us Us Us Us Cs Cs Cs Cs Cs Cs Us TTTTTCCCCC TTTTCTTTT (UUUUCUUUUCCCCCCUTTTTTCCCCCCTTTTCTTTT; phosphorothioate backbone, chemistry not fully specified) [Rs RD]” was tested, and the protection from cleavage ([1]; at equimolar concentration) was “One hundred percent” and the “inhibition (protection from RNase H)” value ([1]; at the same concentration as the phosphodiester) was 100%.
